# Measured values reported in US20200138827A1, “SMALL MOLECULE MODULATORS OF HUMAN STING” (Curadev Pharma Limited, priority 2017, published 2020).
# pEC50: −log10 of the molar value. Where two headings read alike, the source gives them in different places.
# Experiments:
# [1] = molecular target: T1, hSTING(HAQ) (Homo sapiens, UniProt Q86WV6, G230A/H232R/R293Q/R71H); experiment: Luciferase reporter assay in HEK293T-hSTING-Luciferase cells, HAQ polymorph; assay type: cell-based; conditions: 20 hr stimulation, read-out: HAQ activity (EC50 range)
# T1 construct: host or cells: HEK293T
# Excerpt: (§1) • a) Stable STING expressing cells—Stable HEK293T STING-expressing cell lines were generated using plasmids purchased from Invivogen, Calif., USA, that contain STING cDNA cloned into the pUNO-1 vector under hEF1-HTLV promoter and containing the Blasticidin selection cassette. The plasmids hSTING(R232), hSTING(H232), hSTING(HAQ) were directly procured from Invivogen while hSTING (AQ) and hSTING (Q) were derived from hSTING(HAQ) and hSTING (R232) plasmids respectively by using a PCR based site directed mutagenesis method. These vectors were individually transfected into HEK293T cells using Lipofectamine (Invitrogen) and transfected cells were selected under Blasticidin selection. These transfected cells were further subjected to clonal selection using the limiting dilution method to obtain clonally pure populations of HEK cells transfected with each of the above mentioned human STING variants. Only those clones were selected in which ligand independent activation of STING was minimal. • b) Stable Luciferase reporter gene expressing cells—Stable HEK293T Luciferase reporter gene expressing cell lines were generated using pCDNA4 plasmids under an IRF-inducible promoter. This promoter is comprised of five tandem interferon-stimulated response elements (ISRE) fused to an ISG54 minimal promoter. This vector was transfected into HEK293T cells using Lipofectamine (Invitrogen) and transfected cells were selected under Zeocin selection. These transfected cells were further subjected to clonal selection using the limiting dilution method to obtain clonally pure populations of HEK cells transfected the Luciferase reporter construct. Only those clones were selected in which ligand independent induction of luciferase was minimal.
# (§2) 5×10^5 clonally selected HEK293T-hSTING-Luciferase cells were seeded in 384-well plates in growth medium and stimulated with novel compounds. After 20 hr of stimulation supernatant were removed and secretary reporter gene activity were measured using the Quanti-Luc detection system (Invivogen) on a Spectramax i3X luminometer.
# (§3) The 5 major polymorphisms of human STING are shown in FIG. 1, with their prevalence in human populations indicated.
# [2] = system: IRF pathway; experiment: Reporter gene expression assay in THP1-Dual cells, IRF axis (secreted Lucia luciferase); assay type: cell-based, human; conditions: read-out: THP-IRF activity (EC50 range)
# Experimental: (§4) THP1-Dual™ cells (Invivogen) were derived from the human THP-1 monocyte cell line by stable integration of two inducible reporter constructs. As a result, THP1-Dual™ cells allow the simultaneous study of the NF-κB pathway, by monitoring the activity of secreted SEAP, and the IRF pathway, by assessing the activity of a secreted luciferase (Lucia). […] THP1-Dual™ cells were seeded in 384-well plates in growth medium and stimulated with novel compounds. After […] of stimulation supernatant were removed and reporter proteins were readily measured in the cell culture supernatant using QUANTI-Blue™ (Invivogen), a SEAP detection reagent, and QUANTI-Luc™ (Invivogen), a luciferase detection reagent on a Spectramax i3X luminometer.
# [3] = molecular target: T2, WT/R232 STING protein (Homo sapiens, UniProt Q86WV6, H232R); experiment: Luciferase reporter assay in HEK293T-hSTING-Luciferase cells, WT/R232; assay type: cell-based; conditions: 20 hr stimulation, read-out: R232 Activity (EC50 range)
# T2 construct: host or cells: HEK293T
# In short: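 […], read by luminescence from supernatant after 20 h compound stimulation. Cells: clonally selected HEK293T (5×10^5/well) stably carrying WT/R232 human STING and a luciferase reporter under five tandem ISREs fused to an ISG54 minimal promoter.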
# [4] = system: NF-κB pathway; experiment: Reporter gene expression assay in THP1-Dual cells, NFkB axis (secreted SEAP); assay type: cell-based, human; conditions: read-out: THP-NFKB activity (EC50 range)
# Experimental: as §4
# [5] = molecular target: T3, hSTING(H232) (Homo sapiens, UniProt Q86WV6); experiment: Luciferase reporter assay in HEK293T-hSTING-Luciferase cells, H232 polymorph; assay type: cell-based; conditions: 20 hr stimulation, read-out: H232 activity (EC50 range)
# T3 construct: host or cells: HEK293T
# Excerpt: as §1, §2, §3
# T3 sequence (Q86WV6 whole entry): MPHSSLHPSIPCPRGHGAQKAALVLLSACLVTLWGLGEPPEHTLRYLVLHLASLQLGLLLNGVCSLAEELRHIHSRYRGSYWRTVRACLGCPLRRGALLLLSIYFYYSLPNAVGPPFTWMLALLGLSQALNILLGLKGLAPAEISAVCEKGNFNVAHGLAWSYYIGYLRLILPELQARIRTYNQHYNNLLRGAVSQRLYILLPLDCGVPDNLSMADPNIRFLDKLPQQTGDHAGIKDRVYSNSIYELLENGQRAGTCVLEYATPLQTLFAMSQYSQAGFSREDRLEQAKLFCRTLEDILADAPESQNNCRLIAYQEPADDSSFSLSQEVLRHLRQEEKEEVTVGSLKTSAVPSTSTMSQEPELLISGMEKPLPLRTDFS
# T2 sequence (Q86WV6 whole entry H232R): as the sequence (Q86WV6 whole entry) above, with H232R counted along it
# T1 sequence (Q86WV6 whole entry R71H/G230A/H232R/R293Q): as the sequence (Q86WV6 whole entry) above, with R71H, G230A, H232R, R293Q counted along it
Structure (SMILES),pEC50 [1],"pEC50 ([2]; Homo sapiens, THP1-Dual)",pEC50 [3],"pEC50 ([4]; Homo sapiens, THP1-Dual)",pEC50 [5],pEC50 [2],pEC50 [4]
"O=C(NCc1ccco1)c1ccc2c(c1)N(Cc1c(Cl)cccc1Cl)C(=O)CS2 [Example 93, 4-(2,6-dichlorobenzyl)-N-(furan-2-ylmethyl)-3-oxo-3,4-dihydro-2H-benzo[b-1,4]thiazine-6-carboxamide]",< 5.00,< 5.00,5.00 to 6.00,< 5.00,5.00 to 6.00,,
"O=C(NCc1c(F)cc(F)cc1F)c1ccc2c(c1)N(Cc1c(F)cccc1Cl)C(=O)CS2 [Example 112, 4-(2-chloro-6-fluorobenzyl)-3-oxo-N-(2,4,6-trifluorobenzyl)-3,4-dihydro-2H-benzo[b-1,4]thiazine-6-carboxamide]",> 6.00,< 5.00,> 6.00,< 5.00,> 6.00,,
"O=C(NCc1ccccc1)c1ccc2c(c1)N(Cc1ccccc1)C(=O)CS2 [Example 118, N,4-dibenzyl-3-oxo-3,4-dihydro-2H-benzo[b-1,4]thiazine-6-carboxamide]",< 5.00,< 5.00,5.00 to 6.00,< 5.00,5.00 to 6.00,,
"O=C(NCc1ccco1)c1ccc2c(c1)N(Cc1ccc(F)cc1)C(=O)CS2 [Example 120, 4-(4-fluorobenzyl)-N-(furan-2-ylmethyl)-3-oxo-3,4-dihydro-2H-benzo[b-1,4]thiazine-6-carboxamide]",< 5.00,< 5.00,5.00 to 6.00,< 5.00,5.00 to 6.00,,
"O=C(NCc1ccc(F)cc1)c1ccc2c(c1)N(Cc1c(F)cccc1Cl)C(=O)CS2 [Example 127, 4-(2-chloro-6-fluorobenzyl)-N-(4-fluorobenzyl)-3-oxo-3,4-dihydro-2H-benzo[b-1,4]thiazine-6-carboxamide]",5.00 to 6.00,< 5.00,5.00 to 6.00,< 5.00,5.00 to 6.00,,
"O=C(NCc1ccco1)c1ccc2c(c1)N(Cc1c(F)cccc1Cl)C(=O)CS2 [Example 131, 4-(2-chloro-6-fluorobenzyl)-N-(furan-2-ylmethyl)-3-oxo-3,4-dihydro-2H-benzo[b][1,4]thiazine-6-carboxamide]",< 5.00,< 5.00,5.00 to 6.00,< 5.00,5.00 to 6.00,,
"CC1Sc2ccc(C(=O)NCc3c(F)cc(F)cc3F)cc2N(Cc2cnn(C)c2)C1=O (centres unmarked) [Example 133, 2-methyl-N-2,4,6-trifluorobenzyl-4-[(1-methyl-1H-pyrazol-4-yl)methyl]-3-oxo-3,4-dihydro-2H-1,4-benzothiazine-6-carboxamide]",5.00 to 6.00,< 5.00,5.00 to 6.00,5.00 to 6.00,5.00 to 6.00,,
"CC1(C)Sc2ccc(C(=O)NCC3CCCCC3)cc2N(Cc2ccccc2F)C1=O [Example 136, N-(cyclohexylmethyl)-4-(2-fluorobenzyl)-2,2-dimethyl-3-oxo-3,4-dihydro-2H-benzo[b-1,4]thiazine-6-carboxamide]",< 5.00,< 5.00,5.00 to 6.00,< 5.00,< 5.00,,
"CC1Sc2ccc(C(=O)NCc3c(F)cc(F)cc3F)cc2N(Cc2c(F)cccc2Cl)C1=O (centres unmarked) [Example 138, 4-(2-chloro-6-fluorobenzyl)-2-methyl-3-oxo-N-(2,4,6-trifluorobenzyl)-3,4-dihydro-2H-benzo[b-1,4]thiazine-6-carboxamide]",> 6.00,5.00 to 6.00,> 6.00,5.00 to 6.00,> 6.00,,
"Cc1cccc(CNC(=O)c2ccc3c(c2)N(Cc2ccccc2F)C(=O)C(C)S3)c1 (centres unmarked) [Example 141, 4-(2-fluorobenzyl)-2-methyl-N-(3-methylbenzyl)-3-oxo-3,4-dihydro-2H-benzo[b-1,4]thiazine-6-carboxamide]",> 6.00,5.00 to 6.00,> 6.00,5.00 to 6.00,5.00 to 6.00,,
"Cc1cccc(CNC(=O)c2ccc3c(c2)N(Cc2cc(F)cc(F)c2)C(=O)C(C)S3)c1 (centres unmarked) [Example 144, 4-(3,5-difluorobenzyl)-2-methyl-N-(3-methylbenzyl)-3-oxo-3,4-dihydro-2H-benzo[b-1,4]thiazine-6-carboxamide]",5.00 to 6.00,5.00 to 6.00,> 6.00,5.00 to 6.00,5.00 to 6.00,,
"CC1Sc2ccc(C(=O)NCc3c(F)cc(F)cc3F)cc2N(Cc2cc(F)cc(F)c2)C1=O (centres unmarked) [Example 145, 4-(3,5-difluorobenzyl)-2-methyl-3-oxo-N-(2,4,6-trifluorobenzyl)-3,4-dihydro-2H-benzo[b-1,4]thiazine-6-carboxamide]",> 6.00,,> 6.00,,> 6.00,5.00 to 6.00,5.00 to 6.00
"C=CCC1Sc2ccc(C(=O)NCc3c(F)cc(F)cc3F)cc2N(Cc2c(F)cccc2Cl)C1=O (centres unmarked) [Example 146, 2-allyl-4-(2-chloro-6-fluorobenzyl)-3-oxo-N-(2,4,6-trifluorobenzyl)-3,4-dihydro-2H-benzo[b-1,4]thiazine-6-carboxamide]",5.00 to 6.00,< 5.00,> 6.00,< 5.00,5.00 to 6.00,,
"CCCC1Sc2ccc(C(=O)NCc3c(F)cc(F)cc3F)cc2N(Cc2c(F)cccc2Cl)C1=O (centres unmarked) [Example 147, 4-(2-chloro-6-fluorobenzyl)-3-oxo-2-propyl-N-(2,4,6-trifluorobenzyl)-3,4-dihydro-2H-benzo[b-1,4]thiazine-6-carboxamide]",5.00 to 6.00,< 5.00,> 6.00,< 5.00,5.00 to 6.00,,
"CC1Sc2ccc(C(=O)NCc3c(F)cc(F)cc3F)cc2N(Cc2cc(F)cc(F)c2)C1=O (centres unmarked) [Example 148, 4-(3,5-difluorobenzyl)-2-methyl-3-oxo-N-(2,4,6-trifluorobenzyl)-3,4-dihydro-2H-benzo[b][1,4] thiazine-6-carboxamide]",> 6.00,,> 6.00,,> 6.00,5.00 to 6.00,> 6.00
"CC1Sc2ccc(C(=O)NCc3cc4ccccc4o3)cc2N(Cc2cc(F)cc(F)c2)C1=O (centres unmarked) [Example 149, N-(benzofuran-2-ylmethyl)-4-(3,5-difluorobenzyl)-2-methyl-3-oxo-3,4-dihydro-2H-benzo[b][1,4] thiazine-6-carboxamide]",> 6.00,5.00 to 6.00,> 6.00,> 6.00,> 6.00,,
"CC1(CO)Sc2ccc(C(=O)NCc3ccc(F)cc3F)cc2N(Cc2c(F)cccc2Cl)C1=O (centres unmarked) [Example 151, 4-(2-chloro-6-fluorobenzyl)-N-(2,4-difluorobenzyl)-2-(hydroxymethyl)-2-methyl-3-oxo-3,4-dihydro-2H-benzo[b][1,4] thiazine-6-carboxamide]",5.00 to 6.00,5.00 to 6.00,> 6.00,5.00 to 6.00,5.00 to 6.00,,
"Cc1ccc(CNC(=O)c2ccc3c(c2)N(Cc2cc(F)cc(F)c2)C(=O)C(C)S3)o1 (centres unmarked) [Example 152, 4-(3,5-difluorobenzyl)-2-methyl-N-((5-methylfuran-2-yl)methyl)-3-oxo-3,4-dihydro-2H-benzo[b][1,4] thiazine-6-carboxamide]",< 5.00,< 5.00,> 6.00,< 5.00,< 5.00,,
"CC1Sc2ccc(C(=O)NCc3c(F)cc(F)cc3F)cc2N(Cc2cc(F)cc(F)c2)C1=O (centres unmarked) [Example 153, 4-(3,5-difluorobenzyl)-2-methyl-3-oxo-N-(2,4,6-trifluorobenzyl)-3,4-dihydro-2H-benzo[b][1,4] thiazine-6-carboxamide]",5.00 to 6.00,5.00 to 6.00,> 6.00,5.00 to 6.00,5.00 to 6.00,,
